Source: patent US20260347338A1, “PYRIMIDINE/PYRIDINE DERIVATIVES OR SALTS THEREOF AND PHARMACEUTICAL COMPOSITIONS COMPRISING THE SAME” (YUHAN CORPORATION, priority 2023, published 2026)
Where a name gives a salt, the structure may show the parent alone.

Each compound was assayed against T1, human recombinant HPK1 (Homo sapiens, UniProt Q92918) (assay: Inhibitory activity against human recombinant HPK1 (TR-FRET)). Conditions: ULight-p70S6K peptide, ATP at Km, room temperature, 1 hour, 0.32 to 1000 nM compound.
T1 construct: purchased BPS Bioscience
Type: biochemical
Summary of the method: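 IC50 classes A–D use 10, 50 and 100 nM cut-offs, derived from TR-FRET signal inhibition relative to DMSO controls. Human recombinant HPK1 phosphorylated ULight-p70S6K peptide at Km ATP for 1 h, room temperature, pH 7.4; test range 0.32–1000 nM final, detection with Eu-labelled antibody after EDTA quench.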

T1 sequence (Q92918 whole entry): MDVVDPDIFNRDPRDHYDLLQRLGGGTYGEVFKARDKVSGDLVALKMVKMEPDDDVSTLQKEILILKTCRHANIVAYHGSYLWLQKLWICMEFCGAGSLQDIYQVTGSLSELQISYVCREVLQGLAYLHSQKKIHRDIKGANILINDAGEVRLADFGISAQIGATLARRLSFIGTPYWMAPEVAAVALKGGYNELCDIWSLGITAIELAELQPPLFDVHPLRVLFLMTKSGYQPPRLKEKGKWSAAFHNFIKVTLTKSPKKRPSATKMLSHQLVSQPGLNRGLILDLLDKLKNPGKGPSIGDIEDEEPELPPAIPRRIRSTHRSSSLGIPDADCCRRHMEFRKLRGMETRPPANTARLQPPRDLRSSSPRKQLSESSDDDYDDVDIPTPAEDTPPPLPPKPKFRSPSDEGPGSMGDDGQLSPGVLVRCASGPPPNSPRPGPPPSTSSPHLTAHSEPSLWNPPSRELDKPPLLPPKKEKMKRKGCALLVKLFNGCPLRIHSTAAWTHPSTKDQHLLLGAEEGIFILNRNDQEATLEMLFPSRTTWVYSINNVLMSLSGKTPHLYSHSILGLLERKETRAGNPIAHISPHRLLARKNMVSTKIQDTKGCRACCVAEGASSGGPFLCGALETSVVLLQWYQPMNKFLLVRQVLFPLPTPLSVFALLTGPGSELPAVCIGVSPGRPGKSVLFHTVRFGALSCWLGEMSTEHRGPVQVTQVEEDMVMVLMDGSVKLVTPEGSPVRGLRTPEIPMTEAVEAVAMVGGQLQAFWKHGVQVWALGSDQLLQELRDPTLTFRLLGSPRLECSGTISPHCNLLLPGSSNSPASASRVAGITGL

| Compound | IC50 |
| --- | --- |
| COc1cc(F)cc(F)c1-c1nccc(Nc2cc(N3CCC[C@](C)(N)C3)c(-c3cnn(C(F)F)c3)cn2)n1 [Example 212, (S)-N-(4-(3-amino-3-methylpiperidin-1-yl)-5-(1-(difluoromethyl)-1H-pyrazol-4-yl)pyridin-2-yl)-2-(2,4-difluoro-6-methoxyphenyl)pyrimidin-4-amine hydrochloride] | ≤ 10 nM |
| N[C@H]1CCCN(c2cc(Nc3ccnc(-c4cc5nccnc5cc4F)n3)ncc2-c2cnn(C(F)F)c2)C1 [Example 88, (S)-N-(4-(3-aminopiperidin-1-yl)-5-(1-(difluoromethyl)-1H-pyrazol-4-yl)pyridin-2-yl)-2-(7-fluoroquinoxalin-6-yl)pyrimidin-4-amine hydrochloride] | ≤ 10 nM |
| COc1cc(F)cc(F)c1-c1nc(Nc2cc(N3CCC[C@H](O)C3)c(-c3cnn(C4CCOCC4)c3)cn2)ccc1N [Example 227, (3S)-1-(2-((5-amino-6-(2,4-difluoro-6-methoxyphenyl)pyridin-2-yl)amino)-5-(1-(tetrahydro-2H-pyran-4-yl)-1H-pyrazol-4-yl)pyridin-4-yl)piperidin-3-ol] | ≤ 10 nM |
| COc1cccc(F)c1-c1nccc(Nc2cc(N3CCC[C@H](N)C3)c(-c3ccc(F)c(Cl)c3)cn2)n1 [Example 292, (S)-N-(4-(3-aminopiperidin-1-yl)-5-(3-chloro-4-fluorophenyl)pyridin-2-yl)-2-(2-fluoro-6-methoxyphenyl)pyrimidin-4-amine hydrochloride] | ≤ 10 nM |

Other lines, results leading:

| IC50 | Compound |
| --- | --- |
| ≤ 10 nM | 2-(2-fluoro-6-methoxyphenyl)-N-(4-(2-methyl-2,8-diazaspiro[4.5]decan-8-yl)-5-(1-(2,2,2-trifluoroethyl)-1H-pyrazol-4-yl)pyridin-2-yl)pyrimidin-4-amine [Example 136] |
| ≤ 10 nM | COc1cccc(F)c1-c1nccc(Nc2cc(N3CCC[C@H](N)C3)c(-c3cnn([C@@H]4CCNC4)c3)cn2)n1 [Example 238, N-(4-((S)-3-aminopiperidin-1-yl)-5-(1-((R)-pyrrolidin-3-yl)-1H-pyrazol-4-yl)pyridin-2-yl)-2-(2-fluoro-6-methoxyphenyl)pyrimidin-4-amine hydrochloride] |
